Key:
[1] = tested on: human and canine patient-derived sarcospheres; test: Resazurin metabolic activity of patient-derived sarcospheres, human and canine summarised together; format: cell-based; settings: 48 h, the other patient samples, read-out: ED50s of romidepsin-resistant patient samples
From the text: Osteosarcoma tissue was obtained during standard-of-care procedures (biopsies or resections) in human patients treated at Indiana University Health and Riley Children’s Hospital with Institutional Review Board approval (#1501467439). Tissue from canine patients with osteosarcoma was obtained from standard-of-care amputations at the Purdue University College of Veterinary Medicine and the Metropolitan Veterinary Hospital. Osteosarcoma diagnosis was confirmed by review of pathology reports. Demographic and clinical information for human and canine patients is in Table 1. Primary osteosarcoma cells were isolated by collagenase/mechanical dispersion using a modification of a previously described protocol ([35]). […] The tissue was rinsed with cold PBS (Cytiva, cat. #SH30028.02) and minced prior to incubation in 10 mL of culture media containing collagenase type II (750 units/mL with 13–18 units of clostripain/mL, Worthington, cat. #LS004176) for 3 hours at 37°C and 5% CO2. The media and tissue fragments were centrifuged at 200 g for 5 minutes. […]
The number of patient-derived cells required to obtain sarcospheres with 400-μm diameters was determined for each patient and varied from 1,000 to 15,000 cells per sarcosphere. […]

143B sarcospheres = test: Cell cycle analysis by flow cytometry (DAPI); format: cell-based, human; settings: 10 nmol/L for 24 hours
Protocol: (§1) Sarcospheres were washed with PBS to remove any media and then resuspended in Accumax Cell Detachment Solution ([…] Technologies, #07921) for 15 to 30 minutes. Sarcospheres were manually dissociated by pipetting up and down at least 10 times. Following dissociation, cells were fixed in Cytofix/Cytoperm (BD Cytofix/Cytoperm Fixation/Permeabilization Solution Kit, BDB554714) for 10 to 20 minutes at 4°C protected from light. Fixation solution was removed with two washes in sterile PBS. Cells were resuspended in PBS and stored for no more than 72 hours at 4°C. Cells were transferred to flow cytometry tubes for staining. For DAPI staining, 1 mg/mL DAPI (BD Pharmingen, #564907) was diluted 1000-fold in sterile PBS and 500 μL was added to the appropriate tubes containing an equal volume of cell suspension. Flow cytometry was performed using a BD LSRFortessa X-20 flow cytometer using a 407 laser. Cell cycle analysis was performed using the Watson model in FlowJo software (version 10.10.0).

LM7 sarcospheres = test: Cell cycle analysis by flow cytometry (DAPI); format: cell-based, human; settings: 10 nmol/L for 24 hours
Protocol: as §1

[2] = tested on: sarcospheres from human patients with osteosarcoma; test: Resazurin metabolic activity of human patient-derived sarcospheres; format: cell-based; settings: for ED50: 48 hours, metabolic activity
From the text: Osteosarcoma tissue was obtained during standard-of-care procedures (biopsies or resections) in human patients treated at Indiana University Health and Riley Children’s Hospital with Institutional Review Board approval (#1501467439). Tissue from canine patients with osteosarcoma was obtained from standard-of-care amputations at the Purdue University College of Veterinary Medicine and the Metropolitan Veterinary Hospital. Osteosarcoma diagnosis was confirmed by review of pathology reports. Demographic and clinical information for human and canine patients is in Table 1. Primary osteosarcoma cells were isolated by collagenase/mechanical dispersion using a modification of a previously described protocol ([35]). […] The tissue was rinsed with cold PBS (Cytiva, cat. #SH30028.02) and minced prior to incubation in 10 mL of culture media containing collagenase type II (750 units/mL with 13–18 units of clostripain/mL, Worthington, cat. #LS004176) for 3 hours at 37°C and 5% CO2. The media and tissue fragments were centrifuged at 200 g for 5 minutes. Pellets with a visible layer of red blood cells were then treated with 5 mL of ACK Lysing Buffer (Gibco, cat. #A10492-01) for 1 minute and then centrifuged at 200 g for 2 minutes. Pellets were resuspended in culture media, pipetted up and down 15 times to disperse tissue fragments, and centrifuged at 200 g for 5 minutes. Finally, any remaining tissue fragments were crushed with a 25-mL pipette and transferred with released cells and culture media to a 100-mm tissue culture dish and incubated at 37°C and 5% CO2. Media were changed every 3 days. When a confluence of ∼80% was reached, the cells were passaged to 150-mm dishes at 5,000 cells/cm^2. Aliquots of the patient-derived osteosarcoma cells were frozen in 10% DMSO (Sigma-Aldrich, D2650), 40% FBS (Cytiva, SH30071.03), and 50% culture media at second passage and stored in liquid nitrogen. The TT2-77 xenoline is a patient cell line that was isolated from a patient-derived xenograft (PDX) that was previously developed and characterized by the Pollok lab ([5]).
The number of patient-derived cells required to obtain sarcospheres with 400-μm diameters was determined for each patient and varied from 1,000 to 15,000 cells per sarcosphere.
Round-bottom 96-well plates were coated with 50 μL/well of 0.5% poly 2-hydroxyethyl methacrylate (Polysciences Inc., cat. #09689-25) in 100% ethanol and incubated at 37°C for 3 days before use to obtain a nonadherent surface. […] Highly metastatic osteosarcoma cells cultured in monolayers at 50% to 80% confluence were lifted with Accutase (Innovative Cell Technologies, Inc., cat. #NC9839010), resuspended in media, and diluted to the desired concentration.

For C/C=C1\NC(=O)[C@H]2CSSCC/C=C/[C@H](CC(=O)N[C@H](C(C)C)C(=O)N2)OC(=O)[C@H](C(C)C)NC1=O [romidepsin], the EC50 [1] was over 1000 nM, the cell cycle block (143B sarcospheres) was “induced a G2–M cell cycle block” and the “proportion of sub-G1 cells” value (143B sarcospheres) was “without altering the proportion of sub-G1 cells”. For the same compound, the cell cycle block (LM7 sarcospheres) was “without inducing a cell cycle block”, the “proportion of sub-G1 cells” value (LM7 sarcospheres) was “increased the proportion of sub-G1 cells” and the “share of human patient samples whose sarcospheres responded” value ([2]; ED50s <70 nmol/L) was about 30%. The ED50 ([2]; TT2-77 Xenoline (romidepsin sensitive)) was 10 nmol/L, the “ED50 of the notably more sensitive patient” value ([2]; one patient) was 1 nmol/L and the ED50 ([2]; patient sample IUhOS002LR (romidepsin resistant)) was >1,000 nmol/L. The ED50 ([2]; patient sample IUhOS005B (romidepsin resistant)) was >1,000 nmol/L, the ED50 ([2]; patient sample IUhOS006B (romidepsin sensitive)) was 6 nmol/L and the ED50 ([2]; patient sample IUhOS013B (romidepsin resistant)) was >1,000 nmol/L. The ED50 ([2]; patient sample IUhOS018B (romidepsin sensitive)) was 1 nmol/L, the ED50 ([2]; patient sample IUhOS020LR (romidepsin sensitive)) was 63 nmol/L and the ED50 ([2]; patient sample IUhOS021B (romidepsin resistant)) was >1,000 nmol/L. For the same compound, the ED50 ([2]; patient sample IUhOS027P (romidepsin resistant)) was >1,000 nmol/L, the ED50 ([2]; patient sample IUhOS029LR (romidepsin resistant)) was >1,000 nmol/L and the ED50 ([2]; patient sample IUhOS0410B (romidepsin resistant)) was >1,000 nmol/L. The ED50 ([2]; patient sample IUhOS0410P (romidepsin resistant)) was >1,000 nmol/L, the ED50 ([2]; patient sample IUhOS1516B (romidepsin sensitive)) was 10 nmol/L and the ED50 ([2]; patient sample IUhOS1516P (romidepsin resistant)) was >1,000 nmol/L. For the same compound, the ED50 ([2]; patient sample IUhOS1925B (romidepsin resistant)) was >1,000 nmol/L, the ED50 ([2]; patient sample IUhOS1925P (romidepsin resistant)) was >1,000 nmol/L and the ED50 ([2]; patient sample IUhOS2226B (romidepsin resistant)) was >1,000 nmol/L. For the same compound, the ED50 ([2]; patient sample IUhOS2226P (romidepsin resistant)) was >1,000 nmol/L.
